From patent US20210395327A1, “Growth Hormone-Releasing Hormone Antagonists and Uses Thereof” (United States Government As Represented By The Department …, priority 2019, published 2021)
Non-standard residues stand in square brackets, D forms with d. Residues, ends and D or L forms follow the SMILES beside them. *: point of attachment. Phenylacetyl(2,3,4,5,6-F5) = O=C(Cc1c(F)c(F)c(F)c(F)c1F)*; Phe(F5) = N[C@@H](Cc1c(F)c(F)c(F)c(F)c1F)C(=O)O; hArg = N=C(N)NCCCC[C@H](N)C(=O)O; 12Ado = NCCCCCCCCCCCC(=O)O; Nle = CCCC[C@H](N)C(=O)O; Orn = NCCC[C@H](N)C(=O)O; Abu = CC[C@H](N)C(=O)O; PhAc = O=C(Cc1ccccc1)*

Experiments:
[1] = system: SK-OV-3 ovarian cancer cells; assay: In vitro cell viability, SK-OV-3; assay type: cell-based, human; conditions: Table 3B; * at 2 μM for 72 H; MIA-602 = 1
Method: (§1) The inhibitory effects of the various synthesized GHRH antagonists were tested in cell proliferation assays in various human cancer cell lines including stomach cancer (KATOIII, N87), colon cancer (HT-29), urothelial cancer (J82, RT4), pancreatic cancer (PANC-1, CFPAC-1), prostatic cancer (PC3), breast cancer (MX-1, HCC1806), ovarian cancer (SK-OV-3, OVCAR-3) and lung cancer (HCC827, H460).
(§2) Cell culture. Human cancer cell lines including pancreatic (PANC-1 and CFPAC-1), lung (HCC827 and H460), stomach (NCI-N87 and KATOIII), urothelial (J82, RT4), prostatic (PC3), breast (MX-1 and HCC 1806), colorectal (HT-29), and ovarian (SK-OV-3 and OVCAR-3) were obtained from the American Type Culture Collection (ATCC) and cultured at 37° C. in a humidified 95% air/5% CO2 atmosphere in the medium recommended by ATCC.
(§3) In vitro cell viability. Cell viability was analyzed as follows: cancer cells including pancreatic (PANC-1 and CFPAC-1), lung (HCC827 and H460), stomach (NCI-N87 and KATOIII), urothelial (J82, RT4), prostatic (PC3) and breast (MX-1 and HCC 1806), colorectal (HT-29) and ovarian (SK-OV-3 and OVCAR-3) were grown on 96 well plates to ˜60% confluence, the cells were starved for 24 h in culture medium containing 0.5% FBS. Cells were then treated with GHRH antagonists MIA602 AVR compounds at concentrations of 1, 2.5 or 5 μM, or vehicle (0.1% DMSO) in quintuplicates for 72 hours. The medium was replaced every 48 hours. Cell viability was measured using CellTiter 96 aqueous one solution kit (Promega). Inhibitory effects of tested AVR compounds in comparison to that of MIA602 are presented as inhibitory potency.
(§4) Inhibitory effects of selected AVR compounds in comparison to that of MIA602 are presented as inhibitory potency (e.g., percentage of inhibition). […] The cell lines tested including lung cancer HCC827 (FIG. 2A), pancreatic cancer CFPAC-1 (FIG. 2B), stomach cancer N87 (FIG. 2C), colon cancer HT-29 (FIG. 2D), breast cancers MX-1 and HCC1806 (FIGS. 2 E, F). […]

[2] = system: HCC1806 breast cancer cells; assay: In vitro cell viability, HCC1806; assay type: cell-based, human; conditions: for In vitro relative inhibitory potency in comparison to MIA-602, HCC-1806: Table 3B, 5 μM for 72 H, MIA-602 = 1
Method in brief: (§5)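 Viability by CellTiter 96 aqueous one solution (MTS) after 72 h exposure to antagonist at 5 μM (some at 2 μM), following 24 h starvation in 0.5% FBS. Results given as percentage inhibition relative to MIA602.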

[3] = system: OVCAR-3 ovarian cancer cells; assay: In vitro cell viability, OVCAR-3; assay type: cell-based, human; conditions: Table 3B; * at 2 μM for 72 H; MIA-602 = 1
Method: as §1, §2, §3, §4

[4] = system: pancreatic cancer CFPAC-1 xenograft; assay: Xenograft tumor growth in nude mice, CFPAC-1; assay type: in vivo; conditions: Table 4I, Pancreatic Ca CFPAC-1, 7 weeks; for % Inhibition: vs control
Method: (§6) The peptides' activity was compared with GHRH antagonist MIA-602. All statistical analyzses were performed from comparing GHRA antagonists to non-treated tumor (control).
(§7) Peptides and chemicals. GHRH antagonists MIA-602 and AVR-GHRH antagonists (see Table 2 above) were synthesized by solid phase methods and purified by HPLC. The peptides were dissolved in DMSO and further diluted in 10% 1,2-propanediol. The final concentration of peptides was 50 µg/ml in 10% 1,2-propanediol containing 0.1% of DMSO.
as §2, with “(NCI-N87), prostate” for “(NCI-N87 and KATOIII), urothelial (J82, RT4), prostatic”, “brest” for “breast”, “HCC-1806),” for “HCC 1806),”
(§8) Xenograft models of human cancers in nude mice. Female athymic (NCr nu/nu) nude mice, 5- to 6-weeks-old, obtained from the Envigo labs (Tampa, Fla.), were housed in laminar airflow cabinets under pathogen-free conditions with a 12-h light/12-h dark schedule, and were fed autoclaved standard chow and water. To generate mice with xenografted tumors, tumor xenografts were initiated by subcutaneous (s.c.) injection of 107 human cancer cells into female nude mice. After about 4 weeks the resulting tumors were dissected and collected after removing necrosis tissues. The tumors were then cut into particles with size of 3 mm3 and transplanted s.c. by trocar needle into experimental animals. When tumors grew to the size of 50-60 mm3 (by volume), mice were randomized into groups and treated daily for 4-8 weeks by subcutaneous administration of 5 μg of GHRH antagonists MIA-602 or AVR-compounds (2-10 μg as indicated), or vehicle solutions (0.1% DMSO in 10% 1,2-propanediol) respectively. Tumor sizes were measured weekly.
(§9) Statistical analysis. One-way ANOVA followed by Bonferroni comparison were performed. Data are expressed as Mean±SEM. To determine statistical significance between animal groups, two-tailed Student's t-test was conducted. Differences were considered significant when p<0.05.
(§10) Results. […] FIG. 1A-N represents in vivo inhibition of tumor growth during the treatment with GHRH antagonist MIA-602 and selected AVR antagonists in nude mice xenografted with various human tumors including pancreatic cancer PANC-1 (FIG. 1A) and CFPAC-1 (FIG. 1I); lung cancer HCC827 (FIGS. 1B, C) and H460 (FIG. 1H); stomach cancer N87 (FIGS. 1D-F); colon cancer HT-29 (FIG. 1G); breast cancer MX-1 and HCC-1806 (FIGS. 1J, K); ovarian cancer SK-OV-3 and OVACAR-3 (FIGS. 1 L, M) and prostate cancer PC3 (FIG. 1N). See also Table 5.

[5] = system: breast cancer HCC-1806 xenograft; assay: Xenograft tumor growth in nude mice, HCC-1806; assay type: in vivo; conditions: Table 4K, Breast Ca HCC-1806, 5 weeks, 5 μg/day s.c.; for % Inhibition: vs control
Method: as §6, §7
as §2, with “(NCI-N87), prostate” for “(NCI-N87 and KATOIII), urothelial (J82, RT4), prostatic”, “brest” for “breast”, “HCC-1806),” for “HCC 1806),”
as §8, §9, §10

MX-1 breast cancer cells = assay: In vitro cell viability, MX-1; assay type: cell-based, human; conditions: for In vitro relative inhibitory potency in comparison to MIA-602, MX-1: Table 3B, 5 μM for 72 H, MIA-602 = 1
Method in brief: as §5

[6] = system: prostate cancer PC3 xenograft; assay: Xenograft tumor growth in nude mice, PC3; assay type: in vivo; conditions: Table 4N, Prostate Ca PC3, 8 weeks, 5 μg/day s.c.; for % Inhibition: vs control
Method: as §6, §7
as §2, with “(NCI-N87), prostate” for “(NCI-N87 and KATOIII), urothelial (J82, RT4), prostatic”, “brest” for “breast”, “HCC-1806),” for “HCC 1806),”
as §8, §9, §10

[7] = system: pancreatic cancer PANC-1 xenograft; assay: Xenograft tumor growth in nude mice, PANC-1; assay type: in vivo; conditions: Table 4A, Pancreatic Ca PANC-1, 7 weeks; for % Inhibition: vs control
Method: as §6, §7
as §2, with “(NCI-N87), prostate” for “(NCI-N87 and KATOIII), urothelial (J82, RT4), prostatic”, “brest” for “breast”, “HCC-1806),” for “HCC 1806),”
as §8, §9, §10

[8] = antagonist 5 μM for 72 h, cell proliferation assay, MIA602 = 1

CCCC[C@H](NC(=O)[C@@H](NC(=O)[C@H](CC(=O)O)NC(=O)[C@H](CCC(N)=O)NC(=O)[C@H](CC(C)C)NC(=O)[C@H](CC(C)C)NC(=O)[C@H](CCCCN)NC(=O)[C@H](CCCNC(=N)N)NC(=O)[C@H](C)NC(=O)[C@H](CO)NC(=O)[C@H](CC(C)C)NC(=O)[C@H](CCC(N)=O)NC(=O)[C@H](CC)NC(=O)[C@H](CC(C)C)NC(=O)[C@@H](NC(=O)[C@H](CCCCN)NC(=O)[C@H](CCCNC(=N)N)NC(=O)[C@H](Cc1ccc(OC)cc1)NC(=O)[C@H](CCCCNC(=N)N)NC(=O)[C@H](C)NC(=O)[C@@H](NC(=O)[C@H](Cc1c(F)c(F)c(F)c(F)c1F)NC(=O)[C@@H](NC(=O)[C@H](C)NC(=O)[C@H](CC(=O)O)NC(=O)[C@@H](CCCNC(=N)N)NC(=O)[C@H](Cc1ccc(O)cc1)NC(=O)CCCCCCCCCCCNC(=O)Cc1c(F)c(F)c(F)c(F)c1F)[C@@H](C)CC)[C@@H](C)O)C(C)C)[C@@H](C)CC)C(=O)N[C@H](CCCNC(=N)N)C(=O)N[C@@H](CCCCNC(=N)N)C(=O)NCCCCCCCCCCCC(N)=O [AVR-352, 5FPhAC-Ada-Tyr-DArg-Asp-Ala-Ile-5FPhe-Thr-Ala-Har-Tyr(Me)-Arg-Lys-Val-Leu-Abu-Gln-Leu-Ser-Ala-Arg-Lys-Leu-Leu-Gln-Asp-Ile-Nle-DArg-Har-Ada-NH2] ({Phenylacetyl(2,3,4,5,6-F5)-12Ado}-Y[dR]DAI[Phe(F5)]TA[hArg]Y(Me)RKVL[Abu]QLSARKLLQDI[Nle][dR][hArg][12Ado]-NH2)
In vitro relative inhibitory potency in comparison to MIA-602, SKOV-3 [1]: 1.15*
In vitro relative inhibitory potency in comparison to MIA-602, HCC-1806 [2]: 4.85
In vitro relative inhibitory potency in comparison to MIA-602, OVCAR-3 [3]: 1.68*
Tumor Growth % ([4]; 2.5 μg/day s.c.): 1616.9%
% Inhibition ([4]; 2.5 μg/day s.c.): 18.0%
Tumor Growth % ([4]; 5 μg/day s.c.): 1448.4%
% Inhibition ([4]; 5 μg/day s.c.): 26.5%
Tumor Growth % [5]: 522.7%
% Inhibition [5]: 56.2%
In vitro relative inhibitory potency in comparison to MIA-602, MX-1 (MX-1 breast cancer cells): 2.793
Tumor Size (mm3) [6]: 413.3 mm3
% Inhibition [6]: 50.0%
Tumor Growth % ([7]; 2.5 μg/day s.c.): 2073.0%
% Inhibition ([7]; 2.5 μg/day s.c.): 22.4%
Tumor Growth % ([7]; 5 μg/day s.c.): 1456.9%
% Inhibition ([7]; 5 μg/day s.c.): 45.4%

CCCC[C@H](NC(=O)[C@@H](NC(=O)[C@H](CC(=O)O)NC(=O)[C@H](CCC(N)=O)NC(=O)[C@H](CC(C)C)NC(=O)[C@H](CC(C)C)NC(=O)[C@H](CCCN)NC(=O)[C@H](Cc1c[nH]cn1)NC(=O)[C@H](C)NC(=O)[C@H](CO)NC(=O)[C@H](CC(C)C)NC(=O)[C@H](CCC(N)=O)NC(=O)[C@H](CC)NC(=O)[C@H](CC(C)C)NC(=O)[C@@H](NC(=O)[C@H](CCCN)NC(=O)[C@H](Cc1c[nH]cn1)NC(=O)[C@H](Cc1ccc(OC)cc1)NC(=O)[C@H](CCCCNC(=N)N)NC(=O)[C@H](C)NC(=O)[C@@H](NC(=O)[C@H](Cc1c(F)c(F)c(F)c(F)c1F)NC(=O)[C@@H](NC(=O)[C@H](C)NC(=O)[C@H](CC(=O)O)NC(=O)[C@@H](CCCNC(=N)N)NC(=O)[C@H](Cc1ccc(O)cc1)NC(=O)CCCCCCCCCCCNC(=O)Cc1ccccc1)[C@@H](C)CC)[C@@H](C)O)C(C)C)[C@@H](C)CC)C(=O)N[C@H](CCCNC(=N)N)C(=O)N[C@@H](CCCCNC(=N)N)C(N)=O [MIA-602, PhAC-Ada, Tyr D-Arg, Asp, Ala, Ile, 5FPhe, Thr, Ala, Har, Tyr(Me), His, Orn, Val, Leu, Abu, Gin, Leu, Ser, Ala, His, Om, Leu, Leu, Gin, Asp, Ile; Nle, D-Arg, Har NH2, reference compound] ({PhAc-12Ado}-Y[dR]DAI[Phe(F5)]TA[hArg]Y(Me)H[Orn]VL[Abu]QLSAH[Orn]LLQDI[Nle][dR][hArg]-NH2)
In vitro relative inhibitory potency in comparison to MIA-602, SKOV-3 [1]: 1
In vitro relative inhibitory potency in comparison to MIA-602, HCC-1806 [2]: 1
relative inhibitory potency in comparison to MIA-602, Breast IICC1806 [2, 8]: 1
In vitro relative inhibitory potency in comparison to MIA-602, OVCAR-3 [3]: 1
Tumor Growth % ([4]; 5 μg/day s.c.): 1587.5%
% Inhibition ([4]; 5 μg/day s.c.): 19.5%
Tumor Growth % [5]: 529.4%
% Inhibition [5]: 55.7%
In vitro relative inhibitory potency in comparison to MIA-602, MX-1 (MX-1 breast cancer cells): 1
relative inhibitory potency in comparison to MIA-602, Breast MX-1 (MX-1 breast cancer cells; [8]): 1
Tumor Size (mm3) [6]: 450.9 mm3
% Inhibition [6]: 45.5%
Tumor Growth % ([7]; 5 μg/day s.c.): 1572.7%
% Inhibition ([7]; 5 μg/day s.c.): 41.1%
